Columns and labels:
Format in all cases: cell-based, human
CFPAC-1 cells [1] = experiment: Induction of EMT by growth factors and cytokines, E-cadherin and vimentin immunoblotting; settings: CFPAC-1 cells treated 7 days with ligand
Protocol: The CFPAC1 cell line was cultured in DMEM media (Gibco #11960) supplemented with 10% FBS (Sigma), 2 mM L Glutamine (Gibco), at 37° C., 5% CO2. For 7 day treatments, cells were seeded on tissue culture plastic in complete growth media and allowed to attach overnight at cell densities that would provide approximately 60-80% confluence at end of experiment. Ligand and/or inhibitor was added the following day (Day 0) in complete growth media and incubated at 37° C., 5% CO2. Ligand source and concentrations used are as follows: [1] From R&D systems, SDF-1α (stromal derived factor-1 alpha) at 100 ng/ml, TRANCE (TNF-related activation induced cytokine) at 50 ng/ml, FGF1 (fibroblast growth factor acidic) at 10 ng/ml, FGF2 (fibroblast growth factor basic) at 10 ng/ml, BMP4 (bone morphogenetic protein 4) at 100 ng/ml, BMP7 (bone morphogenetic protein 7) at 100 ng/ml, IGF2 (insulin-like growth factor 2) at 100 ng/ml, OSM (Oncostatin M) at 100 ng/ml, NRG1 (Neuregulin-1) at 50 ng/ml, PDGFaa (Platelet derived growth factor a) at 50 ng/ml, PDGFbb (platelet derive growth factor b) at 30 ng/ml, Ang2 (Angiopoeitin 2) at 400 ng/ml, amphiregulin at 100 ng/ml, HMGB 1 (Human high-mobility group box 1 protein) at 50 ng/ml; [2] From Genscript, LIF (Leukemia inhibitory factor) at 20 ng/ml, GM-CSF (Granulocyte macrophage colony stimulating factor) at 25 ng/ml, M-CSF (Macrophage colony stimulating factor) at 50 ng/ml; [3] From Anaspec, PAR1 (Protease activated receptor 1 agonist) at 100 μM; PAR2 (Protease activated receptor 2 agonist; peptide SLIGKV-NH2, Cat. No. 60217-1) at 100 μM; PAR4 (Protease activated receptor […] agonist; peptide AYPGKF-NH2, Cat. No. 60218-1) at 100 μM; [4] From Peprotech, HGF (Hepatocyte Growth Factor) at 100 ng/ml; IL-31 (Interleukin-31) at 50 ng/ml, IL-33 (Interleukin-33) at 50 ng/ml, IL1-a (Interleukin-1 alpha) at 10 ng/ml, CTGF (Connective tissue growth factor) at 20 ng/ml, WISP1 (Wnt-1 inducible signaling pathway protein) at 20 ng/ml, PTHrP ([…] hormone-related protein) at 50 ng/ml, MCP1 (monocyte chemotactic protein-1) at 50 ng/ml; and [5] from Sigma, Fulvestrant at 1 μM. Fresh medium containing ligand and/or inhibitor was added 3-4 days after initial dose, and at Day 7 cells were harvested for western blot analysis.
Cells were harvested by washing once with PBS, and lysing on ice for 10 minutes with scraping (using a Cell Lifter, Corning Inc. #3008) in ice cold RIPA buffer (Sigma R0278) containing Protease inhibitor (Sigma P8340), Phosphatase inhibitors (Sigma P2850, P5726) and 200 μM Sodium Vanadate. Supernatents were micro-centrifuged at max speed, 4° C. for 10 minutes. Protein content was quantitated using the BCA method (Pierce #23225) and samples were normalized to total protein in Laemli buffer and heated at 100° C. for 10 minutes. SDS PAGE was run using a Bis-Tris gel system (Invitrogen NuPAGE) with MOPS buffer (Invitrogen NP0001), transferred onto nitrocellulose using the iBLOT system (Invitrogen) and blocked in PBS-T (0.1% Tween 20), 5% non-fat milk or BSA in guidance with primary Ab supplier requirements. All primary antibodies were incubated overnight at 4° C. in PBS-T (0.1% Tween 20) in either 5% non-fat milk or BSA, diluted to the following working dilutions: anti E Cadherin (Santa Cruz #sc-21791) 1:500 dilution; anti Vimentin (BD Biosciences #550513) 1:2000 dilution;); anti GAPDH HRP conjugate (Santa Cruz sc-25778) 1:1000 dilution; anti β-Actin (Sigma, A5441) 1:10,000 dilution. […]

CFPAC-1 cells [2] = experiment: MET/EMT reversion experiment (ligand withdrawal); settings: ligand 14 days, then removed; morphology and E-cadherin/vimentin immunoblot
Protocol: Cells were cultured in complete medium with and without ligand for 14 days, during which time the media and ligand treatment was replaced every 3-4 days. 3 Days prior to the first time point (Day 14), cells were trypsinised, counted and seeded into plastic 35 mm dishes at appropriate seeding densities for the first 3 collection time points. 3 Days prior to the last of the 3 collection time points, the procedure was repeated for the second 3 collection time points, and so on until all time points were collected. Ligand was removed from all cultures at Day 14. At the time of harvest, cells were harvested as described in the western blotting section above. All samples were micro-centrifuged and stored at −80° C. until the end of the experiment, at which time all samples were processed for western blotting.

CFPAC1 cells [3] = experiment: 2D immunofluorescence of E-cadherin and vimentin; settings: cells treated 7 days with ligand, compared to untreated cells
Protocol: Cells were plated on coverslips and stimulated with ligand the following day (day 0). On day 4, medium and ligands were refreshed. After 7 days, the cells were fixed in 4% paraformaldehyde (EMS#15701)/PBS (Gibco #14190) for 10 minutes at room temperature, and then permeabilized in 0.1% Triton X-100 (Sigma #P1379)/PBS for 10 minutes. Cells were blocked in 3% BSA/PBS for one hour and incubated in primary antibody solution (E-cadherin, Santa Cruz #sc21791 and Vimentin, Chemicon #AB5733 in blocking buffer) for two hours at room temperature. Cells were washed in PBS and incubated in secondary antibody (Invitrogen #A11029 and Chemicon #AP194R) for one hour followed by nuclear counterstain TO-PRO3 (Invitrogen #T3605). Coverslips were mounted on slides with Pro-Long Gold antifade reagent (Invitrogen P36934). Images were captured on a Leica DMRXE microcope with SP2 scanner using Leica Confocal Software.

CFPAC1 cells [4] = experiment: Doubling time after ligand treatment; settings: after 7 day ligand treatment, versus untreated
Protocol: Cells were plated and treated with ligand for 7 days. On day 7, cells were counted and re-plated on 6 cm cell culture dishes. On days 3, 5, 7, 10 and 12, cells were trypsinized and counted to determine the total number of cells in the dish, in duplicate. Doubling time was calculated using the multiple time point method on the website www.doubling-time.com.

CFPAC-1 cells [5] = experiment: Cell morphology by light microscopy; settings: treated 7 days; versus untreated cells that formed colonies
Protocol: The CFPAC1 cell line was cultured in DMEM media (Gibco #11960) supplemented with 10% FBS (Sigma), 2 mM L Glutamine (Gibco), at 37° C., 5% CO2. For 7 day treatments, cells were seeded on tissue culture plastic in complete growth media and allowed to attach overnight at cell densities that would provide approximately 60-80% confluence at end of experiment. Ligand and/or inhibitor was added the following day (Day 0) in complete growth media and incubated at 37° C., 5% CO2. Ligand source and concentrations used are as follows: [1] From R&D systems, SDF-1α (stromal derived factor-1 alpha) at 100 ng/ml, TRANCE (TNF-related activation induced cytokine) at 50 ng/ml, FGF1 (fibroblast growth factor acidic) at 10 ng/ml, FGF2 (fibroblast growth factor basic) at 10 ng/ml, BMP4 (bone morphogenetic protein 4) at 100 ng/ml, BMP7 (bone morphogenetic protein 7) at 100 ng/ml, IGF2 (insulin-like growth factor 2) at 100 ng/ml, OSM (Oncostatin M) at 100 ng/ml, NRG1 (Neuregulin-1) at 50 ng/ml, PDGFaa (Platelet derived growth factor a) at 50 ng/ml, PDGFbb (platelet derive growth factor b) at 30 ng/ml, Ang2 (Angiopoeitin 2) at 400 ng/ml, amphiregulin at 100 ng/ml, HMGB 1 (Human high-mobility group box 1 protein) at 50 ng/ml; [2] […]

## HGF: Hepatocyte Growth Factor from Peprotech, used at 100 ng/ml
CFPAC-1 cells [1]
  Induction of EMT (E-cadherin down, vimentin up): most complete EMT
CFPAC-1 cells [2]
  Reversal of EMT upon withdrawal of ligand: can be reversed
CFPAC1 cells [3]
  E-cadherin and vimentin staining: strong vimentin staining with no E-cadherin
CFPAC1 cells [4]
  Effect on doubling time: did not increase the doubling time
CFPAC-1 cells [5]
  Cell morphology: less compact with more elongated cell morphology

From US8642834B2, “Methods for the identification of agents that inhibit mesenchymal-like tumor cells or their formation” (OSI Pharmaceuticals, LLC, priority 2009, dated 2014)
